For series [1], the system named is children and young adults with severe, childhood onset treatment-resistant epilepsy (TRE). Nature of the series: Expanded access compassionate use program: 50% responders after 12 weeks of CBD added to baseline AED. Format: in vivo, human. The settings on record: 12 weeks of treatment.
A short description of series [2]: Solubility of the drug substance in water. Format: physicochemical. The source says: Sesame oil was selected as an excipient to solubilize the drug substance.
In another series the test system is Lennox-Gastaut syndrome. The settings on record: CBD in an oily solution, a child with Lennox-Gastaut syndrome; cited from earlier work.
Series [3] relates to seizures. The settings on record: 200 mg/day of pure CBD, open label, twelve institutionalized adult patients; cited from earlier work.
For another series, the system named is generalized epilepsy. The settings on record: eight adult patients with generalized epilepsy; cited from earlier work.
A further series relates to seizures in mice. The settings on record: after pro-convulsant drugs or an electric current; cited from earlier work.
The test system of series [4] is seizures. The settings on record: 200 mg/day of pure CBD, four adult patients; cited from earlier work.
The conditions of series [5]: in vivo; cited from earlier work.

`C=C(C)[C@@H]1CCC(C)=C[C@H]1c1c(O)cc(CCCCC)cc1O` [CBD, Cannabidiol]: in series [1] (absence seizures (n = 28)), the “<50% reduction in seizures, proportion of patients, absence seizures” value was found to be 36% and the “>50% reduction in seizures, proportion of patients, absence seizures” value was 64%. For the same compound, in series [1] (clonic seizures (n = 8)), the “<50% reduction in seizures, proportion of patients, clonic seizures” value is on record as 50% and the “>50% reduction in seizures, proportion of patients, clonic seizures” value is on record as 50%. Also, in series [1] (myoclonic seizures (n = 30)), the “<50% reduction in seizures, proportion of patients, myoclonic seizures” value is recorded as 57% and the “>50% reduction in seizures, proportion of patients, myoclonic seizures” value is listed as 43%. Moreover, in series [1] (tonic seizures (n = 45)), the “<50% reduction in seizures, proportion of patients, tonic seizures” value was 51% and the “>50% reduction in seizures, proportion of patients, tonic seizures” value is listed as 49%. In addition, in series [1] (tonic-clonic seizures (n = 65)), the “<50% reduction in seizures, proportion of patients, tonic-clonic seizures” value is 37% and the “>50% reduction in seizures, proportion of patients, tonic-clonic seizures” value turned out to be 43%. For the same compound, in series [1] (total seizures (n = 137)), the “<50% reduction in seizures, proportion of patients, total seizures” value is 54% (n = 74). In series [2], the solubility in water entry was “insoluble in water”. Further, in the series on Lennox-Gastaut syndrome, the seizure frequency result is given as “improvement in seizure frequency”. The control of seizures result in the series on seizures [3] was “ineffective in controlling seizures”. For the same compound, in the series with generalized epilepsy, the reduction of seizures entry is listed as “marked reduction of seizures in 4 of the patients”. In addition, the prevention of seizures entry in the series with seizures in mice was “able to prevent seizures in mice”. The “seizure freedom / seizure frequency” value with seizures [4] is reported as “two of the four patients became seizure free”.
Take `CCCCCc1cc(O)c2c(c1)OC(C)(C)[C@@H]1CCC(C)=C[C@@H]21` [THC, Tetrahydrocannabinol]: the pro-convulsant effect entry in series [5] was “pro-convulsant”.
